Results reported in PubChem BioAssay AID316 (DTP/NCI, 2004).
Several values for one entry are separate records, joined by “and”; a condition that tells them apart may be missing. Equal values may be shown once. Inconclusive results and toxic doses are left out. The calls were made as follows: active = survival T/C of 150% or more; inactive = T/C below 125% in these data.

Tested on: P1534 leukemia ip, CD2F1 mice, survival T/C
Assay: NCI In Vivo Anticancer Drug Screen. Data for tumor model P1534 Leukemia (intraperitoneal) in CD2F1 (CDF1) mice
Details: higher = longer survival
Protocol: The antitumor activity of compounds was measured in mice bearing transplantable tumors. Survival or tumor size were measured and the results are expressed as the measurement made in the treated group (T) divided by the measurement made in the vehicle treated control group (C). The tumor model used in this assay is P1534 Leukemia (intraperitoneal) in CD2F1 (CDF1) mice

[1] = endpoint: mean survival time, dose: 8.0 mg/kg/injection, schedule: Q01DX010 (ip), vehicle: saline
[2] = endpoint: mean survival time, dose: 16.0 mg/kg/injection, schedule: Q01DX010 (ip), vehicle: saline
[3] = endpoint: mean survival time, dose: 32.0 mg/kg/injection, schedule: Q01DX010 (ip), vehicle: saline
[4] = endpoint: mean survival time, dose: 125.0 mg/kg/injection, schedule: Q01DX010 (ip), vehicle: saline
[5] = endpoint: mean survival time, dose: 500.0 mg/kg/injection, schedule: Q01DX010 (ip), vehicle: saline
[6] = endpoint: mean survival time, dose: 10.0 mg/kg/injection, schedule: Q01DX010 (ip), vehicle: saline
[7] = endpoint: mean survival time, dose: 25.0 mg/kg/injection, schedule: Q01DX010 (ip), vehicle: saline
[8] = endpoint: mean survival time, dose: 64.0 mg/kg/injection, schedule: Q01DX010 (ip), vehicle: saline
[9] = endpoint: mean survival time, dose: 50.0 mg/kg/injection, schedule: Q01DX010 (ip), vehicle: saline
[10] = endpoint: mean survival time, dose: 100.0 mg/kg/injection, schedule: Q01DX010 (ip), vehicle: saline
[11] = endpoint: mean survival time, dose: 250.0 mg/kg/injection, schedule: Q01DX010 (ip), vehicle: saline

Measured: T/C

CN1CC[C@]23c4c5ccc(O)c4O[C@H]2C(=O)CC[C@H]3[C@H]1C5
inactive: endpoint: mean survival time, dose: 4.0 mg/kg/injection, schedule: Q01DX010 (ip), vehicle: saline 100 % of control | [1] 100 % of control | [2] 107 % of control and 100 % of control | [3] 103 % of control

c1ccc(CCSc2ncnc3nc[nH]c23)cc1
inactive: [4] 100 % of control | [5] 103 % of control

COc1ccc2cc3[n+](cc2c1OC)CCc1cc2c(cc1-3)OCO2
inactive: endpoint: mean survival time, dose: 1.56 mg/kg/injection, schedule: Q01DX010 (ip), vehicle: saline 106 % of control | endpoint: mean survival time, dose: 3.13 mg/kg/injection, schedule: Q01DX010 (ip), vehicle: saline 106 % of control | endpoint: mean survival time, dose: 6.25 mg/kg/injection, schedule: Q01DX010 (ip), vehicle: saline 110 % of control | endpoint: mean survival time, dose: 12.5 mg/kg/injection, schedule: Q01DX010 (ip), vehicle: saline 123 % of control

CC[n+]1c(-c2ccccc2)c2cc(N)ccc2c2ccc(N)cc21
inactive: endpoint: mean survival time, dose: 1.25 mg/kg/injection, schedule: Q01DX010 (ip), vehicle: saline 117 % of control | endpoint: mean survival time, dose: 2.5 mg/kg/injection, schedule: Q01DX010 (ip), vehicle: saline 117 % of control
active: [6] 150 % of control

CCCCCCCCCCCCCCCCC(C(=O)O)C(O)(CC(=O)O)C(=O)O (stereo not given)
inactive: [7] 88 % of control

CC(=O)OCC1OC(n2ncc(=O)[nH]c2=O)C(OC(C)=O)C1OC(C)=O (stereo not given)
inactive: endpoint: mean survival time, dose: 300.0 mg/kg/injection, schedule: Q01DX010 (ip), vehicle: saline 89 % of control | endpoint: mean survival time, dose: 450.0 mg/kg/injection, schedule: Q01DX010 (ip), vehicle: saline 96 % of control | endpoint: mean survival time, dose: 675.0 mg/kg/injection, schedule: Q01DX010 (ip), vehicle: saline 100 % of control

CN(Cc1cnc2nc(N)nc(N)c2n1)c1ccc(C(=O)N[C@@H](CCC(=O)O)C(=O)O)cc1
active: endpoint: median survival time, dose: 0.5 mg/kg/injection, schedule: Q01DX009 (ip), vehicle: sodium bicarbonate 158 % of control | endpoint: median survival time, dose: 1.0 mg/kg/injection, schedule: Q01DX009 (ip), vehicle: sodium bicarbonate 198 % of control

COc1ccc(/C=N/NC(N)=S)cc1
inactive: [3] 100 % of control | [8] 100 % of control | endpoint: mean survival time, dose: 128.0 mg/kg/injection, schedule: Q01DX010 (ip), vehicle: saline 100 % of control | endpoint: mean survival time, dose: 256.0 mg/kg/injection, schedule: Q01DX010 (ip), vehicle: saline 106 % of control

COc1ccc(C(=O)C[C@H]2CCC[C@@H](CC(=O)c3ccc(OC)cc3)N2C)cc1
inactive: [6] 107 % of control | endpoint: mean survival time, dose: 20.0 mg/kg/injection, schedule: Q01DX010 (ip), vehicle: saline 100 % of control | endpoint: mean survival time, dose: 40.0 mg/kg/injection, schedule: Q01DX010 (ip), vehicle: saline 100 % of control | endpoint: mean survival time, dose: 80.0 mg/kg/injection, schedule: Q01DX010 (ip), vehicle: saline 107 % of control

N#C[C@@H]1C2C=CC(CC2)[C@H]1C#N
inactive: endpoint: mean survival time, dose: 0.25 mg/kg/injection, schedule: Q01DX010 (ip), vehicle: saline 100 % of control | endpoint: mean survival time, dose: 0.5 mg/kg/injection, schedule: Q01DX010 (ip), vehicle: saline 103 % of control and 96 % of control | endpoint: mean survival time, dose: 1.0 mg/kg/injection, schedule: Q01DX010 (ip), vehicle: saline 103 % of control and 100 % of control | endpoint: mean survival time, dose: 2.0 mg/kg/injection, schedule: Q01DX010 (ip), vehicle: saline 103 % of control and 96 % of control

O=C(Nc1ccc(C2=NCCN2)cc1)c1ccc(C(=O)Nc2ccc(C3=NCCN3)cc2)cc1
inactive: [1] 104 % of control | [2] 100 % of control | [3] 104 % of control and 100 % of control | [8] 104 % of control and 100 % of control

c1ccc2ncccc2c1
inactive: [7] 100 % of control | [9] 100 % of control | [10] 96 % of control

Nc1c(Br)cc2c(c1Br)Cc1cc([N+](=O)[O-])ccc1-2
inactive: endpoint: mean survival time, dose: 15.6 mg/kg/injection, schedule: Q01DX010 (ip), vehicle: saline 115 % of control | endpoint: mean survival time, dose: 31.3 mg/kg/injection, schedule: Q01DX010 (ip), vehicle: saline 107 % of control and 110 % of control | endpoint: mean survival time, dose: 62.5 mg/kg/injection, schedule: Q01DX010 (ip), vehicle: saline 107 % of control | [4] 110 % of control and 115 % of control | [11] 107 % of control

CCOC(N)=O
inactive: [4] 100 % of control | [11] 112 % of control and 100 % of control | [5] 112 % of control and 100 % of control | endpoint: mean survival time, dose: 1000.0 mg/kg/injection, schedule: Q01DX010 (ip), vehicle: saline 88 % of control and 93 % of control

CC(=O)[C@@]1(O)CC[C@H]2[C@@H]3C[C@H](C)C4=CC(=O)C=C[C@]4(C)[C@@]3(F)[C@@H](O)C[C@@]21C
inactive: endpoint: mean survival time, dose: 12.5 mg/kg/injection, schedule: Q01DX010 (sc), vehicle: steriod suspending solution 107 % of control | endpoint: mean survival time, dose: 25.0 mg/kg/injection, schedule: Q01DX010 (sc), vehicle: steriod suspending solution 107 % of control | endpoint: mean survival time, dose: 50.0 mg/kg/injection, schedule: Q01DX010 (sc), vehicle: steriod suspending solution 107 % of control | endpoint: mean survival time, dose: 100.0 mg/kg/injection, schedule: Q01DX010 (sc), vehicle: steriod suspending solution 100 % of control

O=C(NCCCCCCNC(=O)OCc1ccccc1)OCc1ccccc1
inactive: [9] 100 % of control | [10] 96 % of control | endpoint: mean survival time, dose: 200.0 mg/kg/injection, schedule: Q01DX010 (ip), vehicle: saline 92 % of control | endpoint: mean survival time, dose: 400.0 mg/kg/injection, schedule: Q01DX010 (ip), vehicle: saline 100 % of control
